Data taken from PubChem BioAssay AID504468 (NMMLSC, 2011).
Activity calls are given as the source filed them.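 Rule for the calls: active = compounds with a fitted EC50 of 33 micromolar or lower for the MEP2 GFP signal; inactive = the rest.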

What was measured:
[1] = MEP2-GFP expression modulation in yeast, dose response, flow cytometry, kMESF, KU SAR set 2 (AID 504468); details: S. cerevisiae MEP2-GFP strain, flow cytometry fluorescence, 3 h
[2] = tested on: S. cerevisiae MEP2-GFP strain, flow cytometry fluorescence, 3 h; assay: as above

| Compound | GFP fluorescence (kMESF) ([1]; at 300 µM (top of the series)) | GFP fluorescence (kMESF) ([1]; at 100 µM (top of the series)) | other results |
| --- | --- | --- | --- |
| COC(=O)c1cccc(-c2cc(Nc3cc(C)[nH]n3)nc(NCc3ccccc3)n2)c1 | 2.46 kMESF (inactive) | – | – |
| Cc1cc(Nc2cc(Nc3ccccc3)nc(NCc3ccccc3)n2)n[nH]1 | 2.46 kMESF (inactive) | – | – |
| CNc1nc(N)cc(Nc2ccccc2F)n1 | 2.73 kMESF (inactive) | – | – |
| Cc1cc(Nc2cc(-c3ccccc3)nc(NCc3ccccc3)n2)n[nH]1 | – | – | EC50 [2]: 107 µM (inactive) |
| CNc1nc(N)cc(Nc2cccc(Cl)c2)n1 | 2.73 kMESF (inactive) | – | – |
| CNc1nc(N)c([N+](=O)[O-])c(Nc2cccc(Oc3ccccc3)c2)n1 | – | – | EC50 [2]: 34.2 µM (inactive) |
| CNc1nc(N)c([N+](=O)[O-])c(Nc2ccccc2Br)n1 | – | 4.59 kMESF (inactive) | – |
| CCOC(=O)c1c(N)nc(NC)nc1Nc1cccc(F)c1 | – | – | EC50 [2]: 81.8 µM (inactive) |
| COc1ccccc1-c1cc(Nc2cc(C)[nH]n2)nc(NCc2ccccc2)n1 | 2.59 kMESF (inactive) | – | – |
| CNc1nc(N)c([N+](=O)[O-])c(Nc2cccc(OC)c2)n1 | – | 7.13 kMESF (inactive) | – |
| O=[N+]([O-])c1c(NC2CCCCC2)nc(NCc2ccccc2)nc1N1CCOCC1 | 2.32 kMESF (inactive) | – | – |
| CCNc1nc(NC2CCCCC2)c([N+](=O)[O-])c(N2CCOCC2)n1 | – | – | EC50 [2]: 189 µM (inactive) |
| CNc1nc(N)c([N+](=O)[O-])c(Nc2ccccc2F)n1 | – | 4.66 kMESF (inactive) | – |
| CNc1nc(NC)c([N+](=O)[O-])c(Nc2cccc(Cl)c2)n1 | – | 4.45 kMESF (inactive) | – |
| COc1cccc(-c2cc(Nc3cc(C)[nH]n3)nc(NCc3ccccc3)n2)c1 | 2.66 kMESF (inactive) | – | – |
| CCNc1nc(N)c([N+](=O)[O-])c(Nc2cccc(Cl)c2)n1 | – | 12 kMESF (inactive) | – |
| CNc1nc(N)c(C(=O)c2ccc(C)c(C)c2)c(Nc2cccc(Cl)c2)n1 | – | 4.45 kMESF (inactive) | – |
| CNc1nc(N)c([N+](=O)[O-])c(Nc2cccc(Br)c2)n1 | – | 7.2 kMESF (inactive) | – |
| CNc1nc(N)cc(Oc2cccc(Cl)c2)n1 | 2.25 kMESF (inactive) | – | – |
